According to PMC3927924, “Bisubstrate UDP–peptide conjugates as human O-GlcNAc transferase inhibitors” (Biochemical Journal, 2014):
“Also recorded” adds a separate entry of the source. Where a SMILES comes first, the peptide text is derived from it. Where no end group is shown, it is not given here. Side-chain parts run from the residue outwards. The star is where a group is joined. Propyl(3-UDP) = O=c1ccn([C@@H]2O[C@H](COP(=O)(O)OP(=O)(O)OCCC*)[C@@H](O)[C@H]2O)c(=O)[nH]1; X1 = O=c1ccn([C@@H]2O[C@H](COP(=O)(O)OP(=O)(O)OCCCC*)[C@@H](O)[C@H]2O)c(=O)[nH]1; C3 linker = three-carbon linker from the acceptor serine to UDP; C4 linker = four-carbon linker from the acceptor serine to UDP

Columns and labels:
hOGT-(312–1031) [1] = target: T1, hOGT-(312–1031) (Homo sapiens, UniProt O15294); test: In vitro glycosylation of peptide substrate KKENSPAVTPVSTA by hOGT, fluorimetric UDP detection; assay type: biochemical; conditions: 10 μM peptide KKENSPAVTPVSTA, 3.2 μM UDP-GlcNAc, 50 nM hOGT
T1 construct: Reactions contained 50 nM hOGT-(312–1031) in 50 mM Tris/HCl; made in house
T1 sequence (O15294 312-1031 isoform O15294-3): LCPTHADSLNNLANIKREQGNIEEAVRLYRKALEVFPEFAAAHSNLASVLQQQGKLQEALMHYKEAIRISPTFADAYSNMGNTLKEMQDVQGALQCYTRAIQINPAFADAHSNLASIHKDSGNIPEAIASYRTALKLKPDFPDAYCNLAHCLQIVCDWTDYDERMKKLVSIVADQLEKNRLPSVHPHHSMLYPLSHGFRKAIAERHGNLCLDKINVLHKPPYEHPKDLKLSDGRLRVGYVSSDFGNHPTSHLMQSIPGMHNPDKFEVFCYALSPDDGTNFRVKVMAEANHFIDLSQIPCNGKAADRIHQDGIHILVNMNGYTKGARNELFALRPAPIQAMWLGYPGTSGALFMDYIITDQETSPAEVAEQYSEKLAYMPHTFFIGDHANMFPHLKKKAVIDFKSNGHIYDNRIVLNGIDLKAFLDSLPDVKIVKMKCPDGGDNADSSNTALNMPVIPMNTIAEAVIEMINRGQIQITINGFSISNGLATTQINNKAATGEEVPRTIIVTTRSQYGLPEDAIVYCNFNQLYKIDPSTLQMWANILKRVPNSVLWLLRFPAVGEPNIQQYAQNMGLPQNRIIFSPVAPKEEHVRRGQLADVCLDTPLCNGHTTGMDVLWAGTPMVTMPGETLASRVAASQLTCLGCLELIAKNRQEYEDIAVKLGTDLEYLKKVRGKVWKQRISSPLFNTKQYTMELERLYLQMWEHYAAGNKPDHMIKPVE
Experimental: Reactions contained 50 nM hOGT-(312–1031) in 50 mM Tris/HCl (pH 7.5), 0.1 mg/ml BSA, 10 μM sodium dithionate and 10 μM peptide (KKENSPAVTPVSTA) and various amounts of inhibitors in a total volume of 100 μl. Reaction mixtures were pre-incubated for 15 min and started by addition of UDP-GlcNAc to a final concentration of 3.2 μM. After 30 min of incubation at 22°C, assays were stopped by adding 200 μl of 25 mM Hepes (pH 7.4), 10 mM NaCl, 50% (v/v) methanol and 15 μM fluorophore, a UDP-sensitive xanthene-based Zn(II) complex prepared as described in [19, 20]. Product formation was detected fluorimetrically on a Gemini EM fluorescence microplate reader (Molecular Devices) at excitation and emission wavelengths of 485 nm and 530 nm respectively. A non-linear regression curve fit was performed with Prism.

[2] = target: T2, SmNodC (Sinorhizobium meliloti NodC) (Rhizobium meliloti, UniProt P04341); test: Coupled fluorigenic in vitro assay of GlcNAc transferase SmNodC; assay type: biochemical; conditions: 1 mM–0.46 μM compound
T2 sequence (P04341 1-426): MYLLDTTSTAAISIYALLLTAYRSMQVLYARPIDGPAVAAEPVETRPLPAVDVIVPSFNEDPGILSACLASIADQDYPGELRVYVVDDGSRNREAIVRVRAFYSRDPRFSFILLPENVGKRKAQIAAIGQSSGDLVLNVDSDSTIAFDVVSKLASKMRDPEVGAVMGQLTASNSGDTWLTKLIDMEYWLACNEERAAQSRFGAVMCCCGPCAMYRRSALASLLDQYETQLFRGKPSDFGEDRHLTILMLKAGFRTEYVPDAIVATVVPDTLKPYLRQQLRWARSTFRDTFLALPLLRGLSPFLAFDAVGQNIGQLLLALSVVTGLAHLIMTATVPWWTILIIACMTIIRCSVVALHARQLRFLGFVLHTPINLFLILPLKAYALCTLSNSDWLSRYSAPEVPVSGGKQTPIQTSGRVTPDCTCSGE
Experimental: Figure S4 The bacterial GlcNAc transferase NodC is not inhibited by goblin1 7.27–7.20 (m, 4H), 7.16 (t, J 8.2 Hz, 4H), 6.31 (d, J 8.2 Hz, 1H), Sm NodC, a GlcNAc transferase from Sinorhizobium meliloti that utilizes UDP-GlcNAc to 5.11–4.95 (m, 4H), 4.61 (dt, J 8.2, 3.0 Hz, 1H), 4.41 (dd, J 10.5, synthesize chito-oligosaccharides, was assayed to investigate the selectivity of goblin1. A 7.2 Hz, 1H), 4.31 (dd, J 10.5, 7.5 Hz, 1H), 4.24–4.14 (m, 2H), coupled ﬂuorigenic in vitro assay was performed in the presence of 1 mM–0.46 μM of goblin1, 4.10 (dq, J 11.2, 5.9 Hz, 1H), 3.92 (dd, J 9.5, 3.3 Hz, 1H), 3.79 12, 17 and UDP. The assay (details available from D. M. F. v. A. on request) relies on (dd, J 9.5, 2.9 Hz, 1H), 3.58 (dt, J 10.4, 5.4 Hz, 1H), 3.47 (dt, the elongation of 4-methylumbellifer yl-N -acetyl-β 1,4-glucosamine by the GlcNAc transferase J 9.8, 6.0 Hz, 1H), 2.37 (s, 3H), 2.35 (s, 3H), 1.8 (m, 1H), 1.7 Sm NodC, and subsequent hydrolysis of the reaction products by Aspergillus fumigatus chitinase (m, 1H), 1.60 (m, 2H); 13 C NMR (126 MHz, [2 H]chloroform) […]
4-parameter IC50 equation in the GraphPad Prism program (http://www.graphpad.com). […]
Beamline, wavelength (A˚) ID 23-1, 0.981ture was stirred for 16 h at room temperature. The reaction Space group P 321was quenched by the addition of methanol, stirred for 30 min Cell dimensions˚) 273.7, 142.6and concentrated. The residue was partitioned between ethyl […]
Resolution (A acetate and 10 % aqueous citric acid solution and the layers R merge 0.136 (0.505)were separated. The organic layer was washed successively with I /σ I 9.2 (3.1)water and a mixture of saturated NaHCO3 solution and brine.
Completeness (%) 99.2 (99.7)The aqueous layer was additionally extracted with the same Redundancy 4.3 (4.5)portion of ethyl acetate. The combined organic layer was dried and Reﬁnement ˚) 30–3.15concentrated. The residue was puriﬁed by ﬂash chromatography […]

hOGT-(312–1031) [3] = target: T1, hOGT-(312–1031); test: In vitro glycosylation of hTAB1 by hOGT, Western blot with TAB1-gSer395 antibody and densitometry; assay type: biochemical; conditions: 1 μM TAB1-(7–402), 10 μM UDP-GlcNAc, Western blot densitometric quantification; read-out: IC50, O-GlcNAcylation of substrate protein TAB1
Experimental: Reaction mixtures containing 1 μM TAB1-(7–402) protein [TAB1 is TGF (transforming growth factor)-β-activated kinase-binding protein 1] (purified as described previously), 0.125 μM hOGT-(312–1031) and 10 μM UDP-GlcNAc in a buffer of 50 mM Tris/HCl (pH 7.5) and 1 mM DTT were incubated at 37°C for 90 min, separated by SDS/PAGE (10% gels) and transferred on to nitrocellulose membranes. Membranes were probed with a TAB1-gSer^395 (O-GlcNAcylated Ser^395) O-GlcNAc site-specific antibody, followed by an IR800-labelled secondary antibody and analysed using a LI-COR Odyssey scanner and associated quantification software. Data were fitted to a four-parameter equation for dose-dependent inhibition using GraphPad Prism 5.0.

hOGT-(312–1031) [4] = target: T1, hOGT-(312–1031); test: Biolayer interferometry binding to immobilized biotinylated hOGT-(312-1031); conditions: 25°C
Experimental: Measurements were made on a ForteBio Octet RED384 instrument at 25°C. Biotinylated hOGT-(312–1031) was prepared at 25 μg/ml in TBS (25 mM Tris/HCl, pH 7.5, and 150 mM NaCl) buffer containing 1 mM DTT and immobilized on superstreptavidin biosensors. Free streptavidin sites were blocked by incubation with biocytin. A parallel set of superstreptavidin biosensors were prepared with biotinylated streptavidin to act as a control. The assay was carried out in 384-well plates with a sample volume of 100 μl. Inhibitor solutions were prepared from solid stocks and dissolved in assay buffer and a concentration series of 3-fold dilutions from a top concentration of 100 μM was created. Cycles for analysis involved obtaining a 30 s baseline followed by a 60 s association step and a 120 s dissociation step. The assay was repeated with the reference biosensors to correct for non-specific interactions and the entire assay was repeated in triplicate for both compounds. Data were processed and kinetic parameters were calculated using ForteBio software.

hOGT [5] = target: hOGT; parameters: method as in PMID 21258330; conditions: read-out: Ki for hOGT in vitro; cited from earlier work
hOGT [6] = tested on: hOGT; parameters: method as in PMID 23103942; conditions: cited from earlier work
[7] = target: T3, goblin2 (UDP-peptide conjugate 14b); test: biolayer interferometry
T3 chain: VTPVS([C4 linker-UDP])TA-NH2

[8] = target: T4, goblin1 (UDP-peptide conjugate 14a); test: biolayer interferometry
T4 chain: VTPVS([C3 linker-UDP])TA-NH2

## COCCCOP(=O)(O)OP(=O)(O)OC[C@H]1O[C@@H](n2ccc(=O)[nH]c2=O)[C@H](O)[C@@H]1O [compound 17]
hOGT-(312–1031) [1]
  IC50: 300 µM
[2]
  SmNodC inhibition: not inhibited

## CC(=O)N[C@H](C(=O)N[C@H](C(=O)N1CCC[C@H]1C(=O)N[C@H](C(=O)N[C@@H](COCCCOP(=O)(O)OP(=O)(O)OC[C@H]1O[C@@H](n2ccc(=O)[nH]c2=O)[C@H](O)[C@@H]1O)C(=O)N[C@H](C(=O)N[C@@H](C)C(N)=O)[C@@H](C)O)C(C)C)[C@@H](C)O)C(C)C [goblin1] (Ac-VTPVS(Propyl(3-UDP))TA-NH2)
hOGT-(312–1031) [3]
  IC50: 8 µM
hOGT-(312–1031) [1]
  IC50: 18 µM
hOGT-(312–1031) [4]
  Kd: 7.9 µM
[2]
  SmNodC inhibition: not an inhibitor; also recorded: not inhibited

## CC(=O)N[C@@H]1[C@@H](O)[C@H](O)[C@@H](CO)S[C@@H]1OP(=O)(O)OP(=O)(O)OC[C@H]1O[C@@H](n2ccc(=O)[nH]c2=O)[C@H](O)[C@@H]1O [UDP-5S-GlcNAc]
hOGT [5]
  Ki: 8 µM

## CC(=O)N[C@H]1[C@@H](OP(=O)(O)OP(=O)(O)OC[C@H]2O[C@@H](n3ccc(=O)[nH]c3=O)[C@H](O)[C@@H]2O)O[C@H](CO)[C@@H](O)[C@@H]1O [UDP-GlcNAc]
hOGT [6]; biophysical determination
  fold higher Kd than for UDP: 30 fold

## O=c1ccn([C@@H]2O[C@H](COP(=O)(O)OP(=O)(O)O)[C@@H](O)[C@H]2O)c(=O)[nH]1 [UDP, reference compound]
hOGT [6]
  Kd: 0.5 µM
[2]
  IC50: 90 µM

## CC(=O)N[C@H](C(=O)N[C@H](C(=O)N1CCC[C@H]1C(=O)N[C@H](C(=O)N[C@@H](COCCCCOP(=O)(O)OP(=O)(O)OC[C@H]1O[C@@H](n2ccc(=O)[nH]c2=O)[C@H](O)[C@@H]1O)C(=O)N[C@H](C(=O)N[C@@H](C)C(N)=O)[C@@H](C)O)C(C)C)[C@@H](C)O)C(C)C [goblin2] (Ac-VTPVS(X1)TA-NH2)
hOGT-(312–1031) [1]
  IC50: 40 µM
hOGT-(312–1031) [4]
  Kd: 4.9 µM

B1: O-GlcNAc transferase (hOGT) 312-1031 (protein)
chain: AEDCYNTALRLCPTHADSLNNLANIKREQGNIEEAVRLYRKALEVFPEFAAAHSNLASVLQQQGKLQEALMHYKEAIRISPTFADAYSNMGNTLKEMQDVQGALQCYTRAIQINPAFADAHSNLASIHKDSGNIPEAIASYRTALKLKPDFPDAYCNLAHCLQIVCDWTDYDERMKKLVSIVADQLEKNRLPSVHPHHSMLYPLSHGFRKAIAERHGNLCLDKINVLHKPPYEHPKDLKLSDGRLRVGYVSSDFGNHPTSHLMQSIPGMHNPDKFEVFCYALSPDDGTNFRVKVMAEANHFIDLSQIPCNGKAADRIHQDGIHILVNMNGYTKGARNELFALRPAPIQAMWLGYPGTSGALFMDYIITDQETSPAEVAEQYSEKLAYMPHTFFIGDHANMFPHLKKKAVIDFKSNGHIYDNRIVLNGIDLKAFLDSLPDVKIVKMKCPDGGDNADSSNTALNMPVIPMNTIAEAVIEMINRGQIQITINGFSISNGLATTQINNKAATGEEVPRTIIVTTRSQYGLPEDAIVYCNFNQLYKIDPSTLQMWANILKRVPNSVLWLLRFPAVGEPNIQQYAQNMGLPQNRIIFSPVAPKEEHVRRGQLADVCLDTPLCNGHTTGMDVLWAGTPMVTMPGETLASRVAASQLTCLGCLELIAKNRQEYEDIAVKLGTDLEYLKKVRGKVWKQRISSPLFNTKQYTMELERLYLQMWEHYAAGN
[7]
  Kd: 4.9 µM
[8]
  Kd: 7.9 µM
